Results published in patent US20250090441A1, “ANTI-CARIES PEPTIDES WITH ANTIMICROBIAL AND REMINERALIZING PROPERTIES AND METHODS THEREOF” (THE UNIVERSITY OF HONG KONG, priority 2023, published 2025).
Values after ≈ are worked out from the molar mass of the structure shown. Where a SMILES comes first, the peptide text is derived from it.

Experiments:
[1] = system: Enterococcus faecalis ATCC 29212; assay type: cell-based
Experimental: (§1) Common oral pathogenic bacterial strains were selected for this study. Streptococcus mutans ATCC 35668, Streptococcus sobrinus ATCC 33478, Lactobacillus acidophilus ATCC 9224, Lactobacillus rhamnosus ATCC10863, Actinomyces naeslundii ATCC 12104, Enterococcus faecalis ATCC 29212, Porphyromonas gingivalis ATCC 33277, and Actinobacillus actinomycetemcomitans ATCC 29523. All the strains were cultured anaerobically.
(§2) Brain heart infusion (BHI) medium was used for culture of S. mutans, S. sobrinus, L. acidophilus, L. rhamnosus, A. naeslundii, E. faecalis, and A. actinomycetemcomitans, whereas p.g. broth was used for culture of Porphyromonas gingivalis. The standard dilution method in a 96-well microplate was conducted in order to evaluate the antimicrobial efficacy of GAPI. Each well was filled with […] GAPI dilutions. In addition, serial twofold dilutions in concentrations ranging from 1280 μM to 1.25 μM were prepared. A 10 μL bacterial culture (10^6 CFU/mL) was added. Chlorhexidine was used as positive control, and medium was used as negative control. The plates were then anaerobically incubated at 37° C. for 24 h. The absorbance was measured at a wavelength of 660 nm in order to analyze the growth of microorganisms. […] The MBC endpoint was the lowest concentration at which 99.9% of the bacterial population was killed, which thus means the absence of bacteria. The morphology of the bacteria and fungi treated with synthesized peptides was analysed using transmission electron microscopy (TEM) (Philips CM100, Philips/FEI Corporation, Eindhoven, Holland). The sample was prepared following a previous study (Niu et al. 2021d). Copper grids were used to contain the semi-thin sections of bacteria/fungi for examination.

[2] = system: Lactobacillus rhamnosus ATCC10863; assay type: cell-based
Experimental: as §1, §2

[3] = system: Porphyromonas gingivalis ATCC 33277; assay type: cell-based
Experimental: as §1, §2

[4] = system: Actinobacillus actinomycetemcomitans ATCC 29523; assay type: cell-based
Experimental: as §1, §2

[5] = system: Streptococcus mutans ATCC 35668; assay type: cell-based
Experimental: as §1, §2

[6] = system: Actinomyces naeslundii ATCC 12104; assay type: cell-based
Experimental: as §1, §2

[7] = system: Lactobacillus acidophilus ATCC 9224; assay type: cell-based
Experimental: as §1, §2

[8] = system: Streptococcus sobrinus ATCC 33478; assay type: cell-based
Experimental: as §1, §2

[9] = system: Streptococcus mutans, UA159; assay: MIC and MBC/MFC test; assay type: cell-based
Experimental: (§3) The antimicrobial properties of synthesized peptides against bacteria and fungi were evaluated using minimum inhibitory concentration (MIC) and minimum bactericidal/fungicidal concentration (MBC/MFC) tests (Wiegand et al. 2008). The tested species include Streptococcus mutans, UA159; Lacticaseibacillus casei, American Type Culture Collection (ATCC) 334; and Candida albicans, ATCC 90028. A 10 μL aliquot of bacterial culture (10^6 CFU/mL) in brain heart infusion (BHI) broth was added to 100 μL serial two-fold dilutions of experimental solutions. The optical density values at 660 nm were measured after 18 h of incubation. To determine the MBC, 10 μL of bacterial culture was taken from the well of MIC, and wells before and after the well of MIC, and transferred to blood agar. The test protocol for fungi was similar: the culture medium was a Roswell Park Memorial Institute (RPMI) 1640 Medium, the absorbance was measured at 520 nm, and Sabouraud dextrose agar was used for the MFC test. Chlorhexidine and medium were used as the positive and negative controls.

[10] = system: Lacticaseibacillus casei, ATCC 334; assay: MIC and MBC/MFC test; assay type: cell-based
Experimental: as §3

[11] = system: Human gingival fibroblast (HGF-1) cells; assay: Biocompatibility, cytotoxicity by Cell Counting Kit-8 Assay; assay type: cell-based
Experimental: The biocompatibility of GAPI was evaluated by cytotoxicity assay using Cell Counting Kit-8 Assay (CCK-8, Apexbio, MA, USA) (Zhang et al. 2019). Human gingival fibroblast (HGF-1, Otwo Biotech Inc., China) cells (1×10^5/mL) were cultured and treated with GAPI. The cells cultured with the only medium were negative controls. The optical density values indicating the number of viable cells was measured at 450 nm after 24 h of incubation.

[12] = Stability in human saliva (HPLC); assay type: in vitro ADME
Experimental: The stability of peptides in human saliva was investigated by testing the remaining peptide concentration via HPLC system (Waters Pacific Pte Ltd, Singapore). The saliva with peptides was mixed and incubated for 0, 15, 30, 45 and 60 min. The test was processed following a previous experimental protocol (Huang et al. 2016).

[13] = system: Candida albicans, ATCC 90028; assay type: cell-based
Experimental: as §3

[14] = Streptococcus mutans (UA159), μM

Compound: CC(C)[C@@H]1NC(=O)[C@H](CCCN=C(N)N)NC(=O)[C@H](Cc2ccccc2)NC(=O)[C@@H](NC(=O)[C@H](Cc2c[nH]c3ccccc23)NC(=O)[C@H](CCCN=C(N)N)NC(=O)[C@H](CCCN=C(N)N)NC(=O)c2cc(O)c(O)c(O)c2)CSSC[C@@H](C(=O)N[C@@H](CCCN=C(N)N)C(=O)O)NC(=O)[C@H](CCCCN)NC(=O)[C@H](CCCN=C(N)N)NC(=O)[C@H](Cc2ccc(O)cc2)NC(=O)[C@@H]2CSSC[C@H](NC1=O)C(=O)N[C@@H](Cc1ccc(O)cc1)C(=O)N[C@@H](CCCN=C(N)N)C(=O)NCC(=O)N[C@@H](Cc1ccccc1)C(=O)N2 [GAPI, Gallic-Acid-Polyphemusin-I] (HELM PEPTIDE1{[O=C(c1cc(O)c(O)c(O)c1)[*:2]].R.R.W.C.F.R.V.C.Y.R.G.F.C.Y.R.K.C.R}$PEPTIDE1,PEPTIDE1,5:R3-18:R3|PEPTIDE1,PEPTIDE1,9:R3-14:R3$$$V2.0)
- MBC ([1]; ATCC 29212): 640 µM (≈ 1670 µg/mL)
- MIC ([1]; ATCC 29212, anaerobic, 24 h): 160 µM (≈ 417 µg/mL)
- MBC ([2]; ATCC 10863): 160 µM (≈ 417 µg/mL)
- MIC ([2]; ATCC 10863, anaerobic, 24 h): 20 µM (≈ 52.1 µg/mL)
- MBC ([3]; ATCC 33277): 640 µM (≈ 1670 µg/mL)
- MIC ([3]; ATCC 33277, anaerobic, 24 h): 320 µM (≈ 834 µg/mL)
- MBC ([4]; ATCC 29523): 320 µM (≈ 834 µg/mL)
- MIC ([4]; ATCC 29523, anaerobic, 24 h): 160 µM (≈ 417 µg/mL)
- MBC ([5]; ATCC 35668): 160 µM (≈ 417 µg/mL)
- MIC ([5]; ATCC 35668, anaerobic, 24 h): 80 µM (≈ 209 µg/mL)
- MBC ([6]; ATCC 12104): 640 µM (≈ 1670 µg/mL)
- MIC ([6]; ATCC 12104, anaerobic, 24 h): 160 µM (≈ 417 µg/mL)
- MBC ([7]; ATCC 9224): 80 µM (≈ 209 µg/mL)
- MIC ([7]; ATCC 9224, anaerobic, 24 h): 40 µM (≈ 104 µg/mL)
- MBC ([8]; ATCC 33478): 320 µM (≈ 834 µg/mL)
- MIC ([8]; ATCC 33478, anaerobic, 24 h): 80 µM (≈ 209 µg/mL)
- minimum inhibitory concentration ([9]; Streptococcus mutans): 40 µM (≈ 104 µg/mL)
- MBC/MFC [9, 14]: 80
- MIC [9, 14]: 40
- minimum inhibitory concentration [10]: 40 µM (≈ 104 µg/mL)
- MBC/MFC ([10]; μM): 160
- MIC ([10]; μM): 40
- optical density values (450 nm, viable cells) versus negative control ([11]; 80, 160, 320 and 640 μM, HGF-1 cells, 24 h): no significant difference
- cytotoxicity to HGF-1 cells ([11]; CCK-8, 24 h): low cytotoxicity
- stable in saliva (time) [12]: at least 60 min
- remaining at 0.25 h ([12]; human, 15 min, read-out: remaining percentage after incubation in human saliva): 98.9%
- remaining at 0.5 h ([12]; human, 30 min, read-out: remaining percentage after incubation in human saliva): 98.6%
- remaining at 0.75 h ([12]; human, 45 min, read-out: remaining percentage after incubation in human saliva): 96.8%
- remaining at 1 h ([12]; human, 60 min, read-out: remaining percentage after incubation in human saliva): 94.4%
- minimum inhibitory concentration [13]: 80 µM (≈ 209 µg/mL)
- MBC/MFC ([13]; μM): 40
- MIC ([13]; μM): 20
